“Also recorded” adds a separate entry of the source. Where no end group is shown, it is not given here.
How the values were obtained:
K3a,eRh2 coiled coil = test: Thermal denaturation of metallopeptide coiled coils monitored by CD; format: physicochemical; settings: for melting temperature (Tm) of coiled coil: equimolar mixture of E3X peptide and K3a,eRh2 in aq buffer, CD 222 nm
Method: FIG. 4 is a table detailing the thermal denaturation of metallopeptide coiled coils. The following standard conditions: equimolar mixtures of E3X and K3a,eRh2 in aq buffer (pH 5.9-6.2) were monitored by CD (222 nm) from −5 to 95° C. at 1° C./min. The peptide concentrations are 100 μM. The CD monitored is at 225 nm and in certain embodiments, the peptide concentration is 33 μM.
Rhodium(II) centers are capable of forming stabilizing secondary contacts at the periphery of a protein binding interface while examining the coiled-coil assembly of rhodium(II) metallopeptides with histidine-containing peptides. A rhodium(II) center linked to a coil at positions a and e of a heptad repeat abcdefg (See FIG. 4) would be proximal to position g of the complementary peptide, E3gX.
Circular Dichroism Spectroscopy: Thermal denaturation experiments (−5-105° C. with a gradient of 1° C./min) were performed on a Jasco-J810 spectropolarimeter with a Peltier temperature controller (Jasco PTC423S). Solutions of 1:1 E3-peptide and K3-metallopeptide (both components 100 or 33 μM) in aqueous buffer in a 0.1 cm sealed cell were analyzed, and ellipticity data were acquired at 222 nm (red data points, S-5). When imidazole additive was utilized, ellipticity data were acquired at 225 nm. Temperature denaturation curves were fit to a two-state unfolding model and plotted (black line, S-5) as fraction unfolded vs. temperature as described previously by Lavigne et al.8 Error associated with the non-linear least squared-determined Tm was determined using the freely available “Solver Statistics” macro for Microsoft Excel.

N1P1 = N1P1 affinity (uM)
Method: Table printed on a drawing sheet, Figure 9B
Title: Metallopeptide ligands for PDZ domains
Head of the field: N1P1 affinity (uM)
The patent's description of the figure: FIG. 9A is a table of metallopeptide inhibitors of CALP. [a], inhibitor equilibrium dissociation (Ki) constants were determined for cognate peptide/metallopeptide pairs. […] In embodiment, [c]
First copying reader's note: The fold values (22x, 95x and so on) are printed beside brackets joining each peptide/Rh-peptide pair and are repeated in both rows; the H301A block stands apart at the right, has no printed unit, and its rows are matched to the sequences by their height on the sheet.
Where the first naming reader finds the target: head: N1P1 affinity (uM)

CAL PDZ domain (CALP) = biological target: T1, CAL PDZ domain (CALP) (Homo sapiens, UniProt Q9HD26); test: Fluorescence anisotropy inhibition binding assay (displacement of fluorescein-labeled iCAL36 reporter); settings: wild-type CALP
T1 construct: Expression and purification of the WT and mutant CAL PDZ domains were performed according to commonly described and known methods; made in house
Method: Protein binding studies: Fluorescence anisotropy inhibition binding assays were performed using standard procedures. […] Following equilibration, fluorescence anisotropy values were determined using a Tecan Infinite M1000 plate reader (n=3). Inhibitor equilibrium dissociation (Ki) constants were estimated as described. DMSO and rhodium(II) acetate were used as negative controls for unlabeled and labeled peptides, respectively.

CALP [1] = biological target: T2, CALP (Homo sapiens, UniProt Q9HD26); test: CALP affinity (uM)
T2 construct: Western blot of native CAL was captured from epithelial lysates; endogenous in cells; host or cells: CFBE41o- epithelial cell lysate
Description: Head of the field: CALP affinity (uM)

full-length CAL = biological target: T3, full-length CAL (Homo sapiens, UniProt Q9HD26); test: Capture (pulldown) inhibition assay in epithelial cell lysate; format: binding; settings: CFBE4lo− cell lysates, BT-iCAL36 bait, n=3
T3 construct: Western blot of native CAL was captured from epithelial lysates; endogenous in cells; host or cells: CFBE41o- epithelial cell lysate
Method: Thus, the metalation improves inhibitor potency.
Capture inhibition assays: To determine the ability of inhibitor peptides to displace the interactions of full-length CAL in the presence of the epithelial-cell proteome, a capture inhibition assay was developed. Briefly, using published methods a biotin-conjugated peptide “bait” sequence (BT-iCAL36) was immobilized on streptavidin beads and incubated with clarified lysates of CFBE4lo− cells to capture full-length CAL in the presence of cellular proteins. […] Beads were washed and eluted, and bound proteins were separated by SDS-PAGE and immunoblotted using an α-CAL antibody. Band intensities were separately quantified and averaged (n=3).

CAL PDZ domain = biological target: T4, CAL PDZ domain (Homo sapiens, UniProt Q9HD26); test: HSQC footprinting of 15N-CALP; format: binding; settings: 125-μM peptide, 2.5% (v/v) DMSO
T4 construct: Expression and purification of the WT and mutant CAL PDZ domains were performed according to commonly described and known methods; made in house
Method: HSQC spectra of 15N-CALP determined separately (red) and in the presence of 125-μM E^RhVQSTRL (SEQ ID NO:7) metallopeptide (green) in 2.5% (v/v) DMSO.
The chemical shifts (δ) are reported in units of part per million (ppm) relative to solvent peak. HSQC footprinting: 25 μM N-labeled CAL PDZ protein was also subjected to H, N heteronuclear single quantum correlation spectroscopy (HSQC) analysis, as described, except that tris(2-carboxyethyl)phosphine was omitted from the final dialysis buffers. […] HSQC backbone crosspeaks were assigned by comparison with the previously assigned CALP apo spectrum.

CALP [2] = biological target: T2, CALP; test: Ki (μM)
Description: Head of the field: Ki (μM)

Compound: E3cH: E3 coil peptide with histidine moved to position c (Ac-EISALEKEISHLEQEISALEK)
- melting temperature (Tm) of coiled coil (K3a,eRh2 coiled coil): 47.0 °C

Compound: CC[C@H](C)[C@H](NC(=O)[C@@H](NC(=O)[C@H](CO)NC(=O)[C@@H](NC(=O)[C@@H]1CCCN1C(=O)[C@H](Cc1c[nH]c2ccccc12)NC(=O)[C@H](CCC(=O)O)NC(C)=O)[C@@H](C)O)[C@@H](C)CC)C(=O)O [EWPTSII]
- Ki (N1P1): > 500 µM

Compound: CC(=O)[O-].CC(=O)[O-].CC(=O)[O-].CC(=O)[O-].[Rh+2].[Rh+2] [Rh2(OAc)4, rhodium(II) acetate]
- Ki (CAL PDZ domain (CALP); n=3, read-out: Ki (inhibitor equilibrium dissociation constant)): 13 ± 5 µM

Compound: Ac-EVQSTRF-OH [E^RhVQSTRF]
- Ki (CALP [1]): > 15 µM

Compound: E3gE: E3 coil peptide with glutamate at position g (Ac-EISALEKEISALEQEISALEK)
- melting temperature (Tm) of coiled coil (K3a,eRh2 coiled coil): 50.2 °C

Compound: N[C@@H](CS)C(=O)O [E3gC]
- coiled coil stability (K3a,eRh2 coiled coil; assembly with K3a,eRh2): decreased stability

Compound: CC(=O)N[C@@H](CCC(=O)O)C(=O)N[C@H](C(=O)N[C@@H](CCC(N)=O)C(=O)N[C@@H](CO)C(=O)N[C@H](C(=O)N[C@@H](CCCNC(=N)N)C(=O)N[C@@H](CC(C)C)C(=O)O)[C@@H](C)O)C(C)C [E^RhVQSTRL]
- inhibition of CAL pulldown (full-length CAL): improved inhibition; also recorded: dose-dependent inhibition
- mode of inhibition (CAL PDZ domain): competitive inhibitors

Compound: Ac-EVQSTRF-OH [EVQSTRF]
- Ki (CALP [1]): > 1000 µM

Compound: E3gF: E3 coil control peptide with non-coordinating phenylalanine at position g (Ac-EISALEKFISALEQEISALEK) [reference compound]
- melting temperature (Tm) of coiled coil (K3a,eRh2 coiled coil): 39.5 °C

Compound: Ac-QLDVTR-OH [QLDVTR]
- Ki (CALP [2]): > 500 µM

Compound: CC(=O)N[C@@H](CCC(=O)O)C(=O)N[C@H](C(=O)N[C@@H](CCC(N)=O)C(=O)N[C@@H](CO)C(=O)N[C@H](C(=O)N[C@@H](CCCNC(=N)N)C(=O)N[C@@H](CC(C)C)C(=O)O)[C@@H](C)O)C(C)C [EVQSTRL]
- mode of inhibition (CAL PDZ domain): competitive inhibitors

Compound: E3gM: E3 coil peptide with methionine at position g (Ac-EISALEKMISALEQEISALEK)
- melting temperature (Tm) of coiled coil (K3a,eRh2 coiled coil): > 70 °C

Compound: CC[C@H](C)[C@H](NC(=O)[C@@H](NC(=O)[C@H](CO)NC(=O)[C@@H](NC(=O)[C@@H]1CCCN1C(=O)[C@H](Cc1c[nH]c2ccccc12)NC(=O)[C@H](CCC(=O)O)NC(C)=O)[C@@H](C)O)[C@@H](C)CC)C(=O)O [E^RhWPTSII]
- Ki (N1P1): > 50 µM

Compound: QLD^RhVTR: metallopeptide derived from a non-binding, scrambled control sequence (Ac-QLDVTR; also: rhodium(II) metalated, site not placed)
- CALP affinity (CAL PDZ domain (CALP)): comparable

Compound: CC(=O)N[C@H](C(=O)N[C@@H](CCC(N)=O)C(=O)N[C@@H](CC(=O)O)C(=O)N[C@H](C(=O)N[C@@H](CCCNC(=N)N)C(=O)N[C@@H](CC(C)C)C(=O)O)[C@@H](C)O)C(C)C [VQDTRL]
- Ki (N1P1): 0.7 µM
- CALP affinity (CAL PDZ domain (CALP)): weak CALP affinity
